Measurements as given in patent US10568921B1, “Extract of Vicia faba beans” (priority 2018, dated 2020).
“And” between values parts separate entries of the source, which are not always exact repeats. Identical values can stand only once.

Test system: strychnine-induced convulsions
Assay: Strychnine-induced convulsions in mice, i.p. pretreatment with test substance
Type: in vivo, BALB/c mice
[1] = 50 mg/kg i.p. + strychnine 0.45 mg/kg i.p., individual mice No. 1-10

## CCC1(c2ccccc2)C(=O)NC(=O)NC1=O [Phenobarbitone, phenobarbitone]
[1]
  Survival recovered time after strychnine injection: 80 minutes (3×) and 90 minutes and 70 minutes (3×) and 75 minutes (3×)
  Time to first convulsion: 5 minutes and 7 minutes (3×) and 6.5 minutes and 8 minutes (2×) and 9 minutes (2×) and 10 minutes
50 mg/kg i.p. + strychnine 0.45 mg/kg i.p., mean of 10 mice
  Survival recovered time after strychnine injection, mean: 76.5 ± 5.58 min
50 mg/kg i.p. before strychnine (A-1 twenty minutes, phenobarbitone 15 minutes), mice
  Protection against strychnine-induced convulsions (in words): protected against the strychnine-induced convulsions, completely
